We go through five compounds from PMC10342118, “Microbial Metabolites of 3-n-butylphthalide as Monoamine Oxidase A Inhibitors” (International Journal of Molecular Sciences, 2023).

Values joined by “and” are separate entries in the source; they are usually repeats but may differ in a detail not shown here. Equal entries are not always repeated. Where two headings read alike, the source gives them in different places. Marks after values point to notes of the source that are not given here.

The target of series [1] is T1, MAO-A (Homo sapiens, UniProt P21397).
T1 sequence (P21397 1-527): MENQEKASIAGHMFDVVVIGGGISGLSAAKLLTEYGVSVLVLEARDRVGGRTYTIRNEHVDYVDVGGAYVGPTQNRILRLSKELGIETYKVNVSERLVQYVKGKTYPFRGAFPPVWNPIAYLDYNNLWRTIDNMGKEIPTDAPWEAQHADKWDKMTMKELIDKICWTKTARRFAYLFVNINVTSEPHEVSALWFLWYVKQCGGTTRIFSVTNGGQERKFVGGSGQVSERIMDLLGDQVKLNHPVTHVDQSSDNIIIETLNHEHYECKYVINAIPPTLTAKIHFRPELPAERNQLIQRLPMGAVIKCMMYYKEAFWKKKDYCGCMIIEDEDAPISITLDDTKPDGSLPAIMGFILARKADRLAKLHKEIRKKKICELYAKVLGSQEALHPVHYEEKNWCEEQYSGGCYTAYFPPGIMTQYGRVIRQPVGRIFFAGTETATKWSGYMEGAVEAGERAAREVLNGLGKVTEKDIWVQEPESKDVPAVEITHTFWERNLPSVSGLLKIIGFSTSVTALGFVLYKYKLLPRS
The arrangement: method as in PMID 23374869. To be noted: MAO-A inhibition; cited from earlier work.

In series [2] the test system is primary rat hepatocytes. The note with it: concentration 0–500 µM; cited from earlier work.
Series [3] addresses T1, MAO-A. The series is described as follows: Inhibition of 5-HT deamination by the MAO-A enzyme (ITC). Type of series: biochemical. To be noted: for IC50: rate of 5-HT deamination. Here is the method:
(§1) Protein-ligand interaction analysis was performed using isothermal titration calorimetry (ITC). During the analysis, the heat of uptake or release, due to the interaction of MAO-A with the tested compounds, was recorded. In this way, raw data were obtained in the form of exothermic heat versus time graphs. Additionally, the ligand was injected into 1% DMSO with methanol to subtract the energetic effects of the dilution of the ligand solution. The highest negative change in enthalpy was characterized by the interaction of the enzyme with compounds 3 (−19.19 kJ/mol) and 4 (−13.37 kJ/mol), and the lowest value of ΔH was recorded during interactions with compound 1 (−4.51 kJ/mol). […] Affinity (ΔG) values were more evenly distributed between compound 1, compounds 1 with 4, 2 with 4, and 2 with 3. […] The ability of the ligands to inhibit […] activity was described on the basis of the IC50 parameter.
Compounds 4 and 4 combined with 2 were at a similar level of about 5 μmol/μmol of the enzyme. Substrate 1, tested with lactones 2 and 3, turned out to be the least beneficial compounds, with a high concentration inhibiting the activity of the enzyme by 50%, and had the least favorable affinity. This effect can be explained by the binding of several compounds in the mixture to different MAO-A residues at the active site and in other regions. Molecular docking can be used in future research to confirm this assumption.
(§2) A MicroCal PEAQ-ITC200 calorimeter (Malvern, Worcestershire, UK) was used to study the interactions of MAO-A with the compounds. The enzyme and compounds were prepared in 1% DMSO with methanol. The measurements were performed at 36.6 °C. The stirring speed was set to 307 rpm, and a total of 19 injections were performed within 50 min, with the reference power set to 10.00 μcal/s. All sample solutions were thoroughly degassed before use. The calorimetric cell was filled with a 20 μM (350 µL) MAO-A sample, and the syringe (2 µL of injection volume) was loaded with a 1 mM/L solution or/and 5-HT (1 mM/L). The ITC data were processed using MicroCal PEAQ-ITC analysis software with calorimetric routines. The following parameters were determined: the standard interaction Gibbs energy (ΔG), standard interaction enthalpy (ΔH), entropy (ΔS), equilibrium constant (KD), and stoichiometry of reaction (N).

Series [4] deals with T1, MAO-A. The series is described as follows: Isothermal titration calorimetry (ITC) of the interaction of MAO-A with the compounds. Type of series: binding. As to the method: as §1, §2
Series [5] concerns primary human hepatocytes. To be noted: concentration 0–500 µM; cited from earlier work.
Series [6] concerns primary rat hepatocytes and primary human hepatocytes. To be noted: repetitive administration; cited from earlier work.
On the set-up of series [7]: method as in PMID 34060121. The note with it: rat plasma and liver microsomes; cited from earlier work. For orientation: Microsomes from liver hold many membrane-bound enzymes, among them those of drug oxidation.
On the set-up of series [8]: method as in PMID 23169608. To be noted: in vivo; cited from earlier work.
Setting [9] is: KM 5-HT 0.35 mmol, mean ± SD, n = 3, read-out: Ki.
[10] abbreviates: ITC, 36.6 °C, mean ± SD, n = 3, read-out: KD.

One may read the Ki as a measure of affinity in units of concentration, obtained from inhibition or displacement. Take `O=C1OCc2ccc(OCCCc3ccccc3)cc21` [6-phenyl-propoxyphthalide]: the Ki in series [1] was 0.062 µM.
A word on the Kd: it is the concentration at which binding is half-saturated. As for `CCCCC1OC(=O)c2ccccc21` (centres unmarked) [Compound 1, 3-n-butylphthalide], the toxicity result in series [2] is given as “not toxic”. For the same compound, in series [3], the affinity corresponds to a Ki of 241 ± 3.55 µM. Moreover, in series [4], the Kd stood at 24.3 ± 1.39 µM. Further, in series [4] (ITC, 36.6 °C, mean ± SD, n = 3), the “KA ∗ 10^3” value is recorded as 41.15 ± 0.36 ^d 10^3 L/mol; the “∆G (affinity)” value is -6.532 ± 0.272 kcal/mol; the “∆H” value is −4.51 kJ/mol and −4.51 ± 0.02 ^e kJ/mol; the “∆S” value is listed as 73.85 ± 1.05 ^d J/mol ∗ K. Besides, the toxicity entry in series [5] was “not toxic”. For the same compound, the cell viability entry in series [6] was “reduction in cell viability”.
Take `CC(O)CCC1OC(=O)c2ccccc21` (centres unmarked) [Compound 2, 3-n-butyl-10-hydroxyphthalide]: in series [3] (setting [9]), the Ki came to 994 ± 3.18 µM. For the same compound, in series [7], the “rank among metabolites of 3-n-butylphthalide” value is “main metabolite”. Further, in series [4] (ITC, 36.6 °C, mean ± SD, n = 3), the “KA ∗ 10^3” value is given as 33.44 ± 0.15 ^a 10^3 L/mol, the “∆G (affinity)” value was −26.79 ± 1.55 ^j kJ/mol, the “∆H” value is −7.77 ± 0.01 ^e kJ/mol and the “∆S” value is 61.55 ± 1.84 ^d J/mol ∗ K. Also, in series [4] (setting [10]), the dissociation constant (Kd) was 29.9 ± 1.09 µM. Further, in series [8], the “rank among circulating human metabolites of 3-n-butylphthalide” value is listed as “dominant circulating human metabolite”.
For `O=C1OC(CCCCO)c2ccccc21` (centres unmarked) [Compound 3, 3-n-butyl-11-hydroxyphthalide], the Ki in series [3] (setting [9]) was < 0.001 µM. Besides, the IC50 in series [3] was 1.29 μmol/μmol of enzyme. In series [4] (ITC, 36.6 °C, mean ± SD, n = 3), the “KA ∗ 10^3” value is 4.18 ± 0.35 ^e 10^3 L/mol; the “∆G (affinity)” value is −23.49 kJ/mol and −23.49 ± 1.42 ^i kJ/mol; the “∆H” value was −19.19 kJ/mol and −19.19 ± 0.01 ^f kJ/mol; the “∆S” value is listed as 13.92 ± 0.92 ^a J/mol ∗ K. For the same compound, the Kd in series [4] (setting [10]) was found to be 239 ± 4.25 µM.
In the case of `O=C(O)CCCC1OC(=O)c2ccccc21` (centres unmarked) [Compound 4, 3-n-butylphthalide-11-oic acid], the Ki in series [3] (setting [9]) amounted to 128 ± 1.25 µM. The IC50 result in series [3] is “about 5 μmol/μmol of enzyme”. Besides, in series [4] (ITC, 36.6 °C, mean ± SD, n = 3), the “KA ∗ 10^3” value is recorded as 14.83 ± 0.25 ^e 10^3 L/mol; the “∆G (affinity)” value was −28.42 kJ/mol and −28.42 ± 1.43 ^j kJ/mol; the “∆H” value was −13.37 kJ/mol and −13.37 ± 0.02 ^f kJ/mol; the “∆S” value is recorded as 48.71 ± 1.05 ^a J/mol ∗ K. The Kd in series [4] (setting [10]) stood at 67.4 ± 3.15 µM.
